Structures can show the parent of a compound that is named as a salt. Where two headings read alike, the source gives them in different places.
Assays:
[1] = system: TNFα induced MMP-13 expression; assay: Synergy (Combinational Index) of THIAA and berberine on TNFα induced MMP-13 expression in SW1353; format: cell-based; settings: Homo sapiens
Procedure: The SW1353 human chondrocyte cell line was used as described in Example 1.
The human chondrocyte cell line, SW1353 were maintained and treatments conditions were described in Example 1. […]; 1:10; 5:1; 2:1; 1:1; 1:2; 1:5; 1:10; […].
Determination of MMP-13 expression—The MMP-13 levels in the medium was measured as described in Example 1.
Median effect calculations were performed using CalcuSyn (Biosoft, Ferguson, Mo.). […] A minimum of three concentrations were used to determine the dose-response curve and a median inhibitory concentration (IC50).
Synergy—Combinational Index (CI) values were measured using CalcuSyn (Biosoft, Ferguson, Mo.). […]

[2] = system: TNFα induced MMP-13 expression; assay: TNFα induced MMP-13 expression in human chondrocyte cell line SW1353; settings: for TNFa Stimulated % Activity average (MMP-13 expression): Table 6; for TNFa Stimulated % Activity average (MMP-13 expression) / activity at 20 µg/mL / TNFa Stimulated MMP-13 n = 1 / TNFa Stimulated MMP-13 average / activity at 1 µg/mL / activity at 5 µg/mL / activity at 10 µg/mL: TNF pos = 100%; for activity at 20 µg/mL / activity at 1 µg/mL / activity at 5 µg/mL / activity at 10 µg/mL: SW1353, 24 h; for Dose dependence of inhibition of TNFα induced MMP-13 expression: Example 2, 20, 10, 5 and 1 ug/ml
Procedure: The SW1353 human chondrocyte cell line was used as described below.
Cells were grown and subcultured in 96-well plates at a density of 8×10^4 cells per well and allowed to reach ˜80% confluence overnight. Test compounds in medium were added to the cells at a final concentration of 0.1% DMSO. Following one hour of incubation with the test compounds, TNFα (10 ng/ml) or medium alone was added to the cell wells and incubation continued for 24 hours. The supernatant media was subsequently collected for MMP-13 determination.
Determination of MMP-13: A commercial, non-radioactive procedure for quantification of MMP-13 was used according to the manufacturer's instructions using MMP-13 as a standard. A minimum of 3 wells were used for each test condition.
The amount of MMP-13 release into the medium was determined by comparison of the MMP-13 generated in the presence or absence of TNFα and test compounds. A minimum of three wells were used for each test condition. The basal MMP-without 13 levels without TNFα stimulation was subtracted from TNF stimulation to determine the TNFα induced MMP-13 expression in the medium and the levels normalized to 100%. The percent activity of test compounds was measured in the presence of TNFα and referred as TNFα induced MMP-13 expression.

[3] = system: sRANKL mediated TRAP activity (osteoclastogenesis), RAW 264.7; assay: sRANKL mediated osteoclastogenesis: TRAP activity in RAW 264.7 cells; settings: for % TRAP activity average (sRANKL induced TRAP activity): RAW 264.7 cells, sRANKL alone normalized to 100%; for activity at 5 µg/mL / activity at 10 µg/mL: Mus musculus, RAW264.7, read-out: % TRAP Activity average; for % TRAP Activity average: Table 8, RAW 264.7, sRANKL 50 ng/ml, RANKL = 100%
Procedure: Following overnight incubation with the test compounds, sRANKL (50 ng/ml) or medium alone was added to the cell wells. The medium was replaced after 2 days with test compounds and sRANKL and incubation was continued for 3 additional days.
The cells were washed twice with ice cold PBS and lysed in 150 μl of 0.2% triton x-100 in PBS. TRAP activity in cell lysates was determined by using TRAP solution from the kit (Sigma 387A1 kit), according to the manufacturers instructions. A 100 μl cell lysates was added to 100 μl of TRAP solution in 96 well plate and incubated at 37° C. for 1 hr. The absorbance was measured at 555 nm using a plate reader. The protein concentration was estimated using BCA reagent (Sigma) and the final activity was normalized for equal protein.
Inhibition of TRAP activity was determined by comparison of the TRAP activity in the presence of with and with out test compounds in sRANKL, activated osteoclasts. A minimum of two wells were used for each concentration.
Inhibition of TRAP activity was determined by comparison in the presence of with and with out test compounds in sRANKL activated osteoclasts. A minimum of two wells were used for each concentration. The basal TRAP activity levels with out sRANKL stimulation was subtracted from sRANKL stimulation to get the sRANKL induced TRAP activity and the activity was normalized to 100%. The percent activity of test compounds was measured in the presence of sRANKL and referred as sRANKL induced TRAP activity.
A minimum of three concentrations were used to determine median inhibitory concentration (IC50).

[4] = Homo sapiens, read-out: TNFa Stimulated MMP-13 average, Table 4, 20 ug/mL, SW1353, TNFα 10 ng/ml 24 h
[5] = Table 4, 20 ug/mL, SW1353, TNFα 10 ng/ml 24 h
[6] = Homo sapiens, read-out: TNFa Stimulated MMP-13 average, Table 5, 1 ug/mL, SW1353
[7] = Homo sapiens, read-out: TNFa Stimulated MMP-13 average, Table 5, 5 ug/mL, SW1353
[8] = Homo sapiens, read-out: TNFa Stimulated MMP-13 average, Table 5, 10 ug/mL, SW1353
[9] = Homo sapiens, read-out: TNFa Stimulated MMP-13 average, Table 5, 20 ug/mL, SW1353

Compound	activity at 20 µg/mL [2, 4] [%]	% TRAP activity average (sRANKL induced TRAP activity) ([3]; 1 ug/mL test compound) [%]	% TRAP activity average (sRANKL induced TRAP activity) ([3]; 5 ug/mL test compound) [%]	% TRAP activity average (sRANKL induced TRAP activity) ([3]; 10 ug/mL test compound) [%]	activity at 5 µg/mL [3] [%]	activity at 10 µg/mL [3] [%]	TNFa Stimulated MMP-13 average [2, 5] [%]	further results
COc1ccc2cc3[n+](cc2c1OC)CCc1cc2c(cc1-3)OCO2 [Berberine sulfate]	–	–	–	–	–	–	–	IC50 ([1]; Table 7B, single agents, read-out: Dm (median effect dose, TNFα induced MMP-13 expression)): 0.254 µg/mL; IC50 ([1]; text b137, single agents, read-out: IC50 (TNFα induced MMP-13 expression)): 0.254 µg/mL; Dose dependence of modulation of TNFα induced MMP-13 expression ([2]; Example 3, SW1353): dose dependently modulated; IC50 ([2]; Homo sapiens, SW1353, read-out: IC50 (TNFa induced MMP-13 expression)): 0.15 µg/mL; TNFa Stimulated % Activity average (MMP-13 expression) ([2]; 0.05 ug/mL, SW1353): 99%; TNFa Stimulated % Activity average (MMP-13 expression) ([2]; 0.1 ug/mL, SW1353): 50%; TNFa Stimulated % Activity average (MMP-13 expression) ([2]; 0.5 ug/mL, SW1353): 4%; TNFa Stimulated % Activity average (MMP-13 expression) ([2]; 1 ug/mL, SW1353): −1%
COc1ccc2cc3[n+](cc2c1OC)CCc1cc2c(cc1-3)OCO2 [Berberine, 7,8,13,13a-tetrahydro-9,10-dimethoxy-2,3-(methylenedioxy)-berbinium]	-39	68	15	7	4	-8	–	TNFa Stimulated MMP-13 n = 1 ([2]; Table 5, 1 ug/mL, SW1353): −1%; TNFa Stimulated MMP-13 n = 1 ([2]; Table 5, 5 ug/mL, SW1353): −4%; TNFa Stimulated MMP-13 n = 1 ([2]; Table 5, 10 ug/mL, SW1353): −4%; TNFa Stimulated MMP-13 n = 1 ([2]; Table 5, 20 ug/mL, SW1353): −4%
CC/C=C\C/C=C\C/C=C\C/C=C\C/C=C\C/C=C\CCC(=O)O [DHA]	–	–	–	–	–	–	265	% TRAP Activity average ([3]; 5 ug/mL): 120%; % TRAP Activity average ([3]; 10 ug/mL): 105%
C[C@]12CC[C@H](O)CC1=CC[C@@H]1[C@@H]2CC[C@]2(C)C(=O)CC[C@@H]12 [DHEA, reference compound]	–	–	–	–	–	–	−2	Dose dependence of inhibition of TNFα induced MMP-13 expression ([2]; SW1353): dose dependently (20, 10, and 1 ug/ml) inhibited; TNFa Stimulated MMP-13 average ([2]; Table 5, 1 ug/mL, SW1353): 111%; TNFa Stimulated MMP-13 average ([2]; Table 5, 5 ug/mL, SW1353): 108%; TNFa Stimulated MMP-13 average ([2]; Table 5, 10 ug/mL, SW1353): 64%; TNFa Stimulated MMP-13 average ([2]; Table 5, 20 ug/mL, SW1353): 5%; % TRAP Activity average ([3]; 5 ug/mL): 46%; % TRAP Activity average ([3]; 10 ug/mL): 33%
O=c1c(-c2ccc(O)cc2)coc2cc(O)cc(O)c12 [Genistein]	27	–	–	–	91	72	–	–
CC1(C)C=Cc2c(ccc3c2OC[C@@H](c2ccc(O)cc2O)C3)O1 [Glabridin]	79	–	–	–	82	75	–	–
N[C@H]1C(O)O[C@H](CO)[C@@H](O)[C@@H]1O (stereo partly shown) [Glucosamine]	77	179	183	269	75	48	–	TNFa Stimulated MMP-13 n = 1 ([2]; Table 5, 1 ug/mL, SW1353): 126%; TNFa Stimulated MMP-13 n = 1 ([2]; Table 5, 5 ug/mL, SW1353): 137%; TNFa Stimulated MMP-13 n = 1 ([2]; Table 5, 10 ug/mL, SW1353): 107%; TNFa Stimulated MMP-13 n = 1 ([2]; Table 5, 20 ug/mL, SW1353): 105%
COc1ccc([C@@H]2CC(=O)c3c(O)cc(O[C@@H]4O[C@H](CO[C@@H]5O[C@@H](C)[C@H](O)[C@@H](O)[C@H]5O)[C@@H](O)[C@H](O)[C@H]4O)cc3O2)cc1O [Hesperidin]	–	–	–	–	–	–	13	% TRAP Activity average ([3]; 5 ug/mL): 81%; % TRAP Activity average ([3]; 10 ug/mL): 76%
CC(C)Oc1ccc2c(=O)c(-c3ccccc3)coc2c1 [Ipriflavone, reference compound]	-42	168	164	82	–	–	–	Dose dependence of inhibition of TNFα induced MMP-13 expression ([2]; SW1353): dose dependently (20, 10, and 1 ug/ml) inhibited; activity at 1 µg/mL [2, 6]: 86%; activity at 5 µg/mL [2, 7]: 20%; activity at 10 µg/mL [2, 8]: 0%; activity at 20 µg/mL [2, 9]: 3%
CCCCC/C=C\C/C=C\CCCCCCCC(=O)O [Linoleic Acid]	23	–	–	–	–	–	–	–
CC1(C)CC[C@]2(C(=O)O)CC[C@]3(C)C(=CC[C@@H]4[C@@]5(C)CC[C@H](O)C(C)(C)[C@@H]5CC[C@]43C)[C@@H]2C1 [Oleanolic Acid]	–	139	63	32	61	35	–	activity at 10 µg/mL ([2]; Homo sapiens, read-out: TNFa Stimulated MMP-13 average, Table 4, 10 ug/mL, SW1353, TNFα 10 ng/ml 24 h): 17%; TNFa Stimulated MMP-13 n = 1 ([2]; Table 5, 1 ug/mL, SW1353): 95%; TNFa Stimulated MMP-13 n = 1 ([2]; Table 5, 5 ug/mL, SW1353): 38%; TNFa Stimulated MMP-13 n = 1 ([2]; Table 5, 10 ug/mL, SW1353): 43%; TNFa Stimulated MMP-13 n = 1 ([2]; Table 5, 20 ug/mL, SW1353): 26%
C/C=C1/[C@H](O[C@@H]2O[C@H](CO)[C@@H](O)[C@H](O)[C@H]2O)OC=C(C(=O)OC)[C@H]1CC(=O)OCCc1ccc(O)c(O)c1 [Oleuropein]	-31	–	–	–	82	81	–	–
O=C(CCc1ccc(O)cc1)c1c(O)cc(O)cc1O[C@@H]1O[C@H](CO)[C@@H](O)[C@H](O)[C@H]1O [Phloridzin]	77	–	–	–	103	150	–	–
O=C([O-])CC(O)(CC(=O)[O-])C(=O)[O-].[K+].[K+].[K+] [Potassium Citrate]	–	–	–	–	–	–	95	–
O=c1c(O)c(-c2ccc(O)c(O)c2)oc2cc(O)cc(O)c12 [Quercetin]	-65	–	–	–	73	62	–	–
Oc1ccc(C=Cc2cc(O)cc(O)c2)cc1 [Resveratrol]	-42	117	17	16	11	2	–	Dose dependence of inhibition of TNFα induced MMP-13 expression ([2]; SW1353): dose dependently (20, 10, and 1 ug/ml) inhibited; activity at 1 µg/mL [2, 6]: 96%; activity at 5 µg/mL [2, 7]: 88%; activity at 10 µg/mL [2, 8]: 53%; activity at 20 µg/mL [2, 9]: 45%
C[C@@H]1O[C@@H](OC[C@H]2O[C@@H](Oc3c(-c4ccc(O)c(O)c4)oc4cc(O)cc(O)c4c3=O)[C@H](O)[C@@H](O)[C@@H]2O)[C@H](O)[C@H](O)[C@H]1O [Rutin]	-7	–	–	–	106	74	–	–
O=C1O[C@H]([C@@H](O)CO)C(O)=C1O [Vitamin C]	370	–	–	–	–	–	–	–
CC(C)=CCC/C(C)=C/CC/C(C)=C/CC/C(C)=C/CC1=C(C)C(=O)c2ccccc2C1=O [Vitamin K2]	–	–	–	–	–	–	56	–
Conjugated Linoleic acid	–	86	81	79	–	–	–	–
Hyaluronic Acid	–	122	130	111	–	–	105	% TRAP Activity average ([3]; 5 ug/mL): 35%; % TRAP Activity average ([3]; 10 ug/mL): 2%
Inulin	–	–	–	–	–	–	33	% TRAP Activity average ([3]; 5 ug/mL): 87%; % TRAP Activity average ([3]; 10 ug/mL): 69%

From US8815306B2, “Methods and compositions for promoting bone and joint health” (Metaproteomics, LLC, priority 2007, dated 2014)
